Laboratory results as given in publication PMC11129182, “Development of Inhibitors, Probes, and PROTAC Provides a Complete Toolbox to Study PARK7 in the Living Cell” (Journal of Medicinal Chemistry, 2024).
Read-outs that look alike come from different tables or passages of the source.

Target: T1, PARK7 (Homo sapiens, UniProt Q99497)
T1 sequence (Q99497 1-189): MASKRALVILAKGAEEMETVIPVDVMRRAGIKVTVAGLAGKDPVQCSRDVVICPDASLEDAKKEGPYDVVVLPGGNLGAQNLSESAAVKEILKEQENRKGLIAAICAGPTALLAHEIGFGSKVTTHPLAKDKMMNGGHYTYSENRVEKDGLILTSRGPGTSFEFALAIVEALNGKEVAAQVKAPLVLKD
Assay: High-throughput screen of the crude compound library, PARK7 fluorescence polarization (FP) assay with FP reagent JYQ-107
Format: biochemical
Conditions: for inhibition at 1.25 µM: read-out: HTS FP assay %Inhibition (1.25 µM)
From the text: Therefore, taking JYQ-88 as a starting point, we conducted an optimization to further improve the molecule in terms of inhibitory potency, specificity, and cellular uptake. […] First, a small tailored library was designed and synthesized to investigate whether the introduction of larger, hydrophilic substituents on JYQ-88 would enhance the interaction with the PARK7 pocket. […] The second approach involved the generation of a compound library containing diverse substituents at the azidomethyl position. […] We next performed a high-throughput screen of this crude compound library using our in-house developed PARK7 fluorescence polarization (FP) assay.[15]

[1] = 1.25 µM, crude compound library
[2] = 1.25 µM, crude compound library, FP reagent JYQ-107

Row | Structure (SMILES) | inhibition at 1.25 µM [1] | further results
1 | N#CN1CC[C@@H](C(=O)Nc2nc3c(s2)CN(C(=O)c2csc(-c4cnccn4)n2)CC3)C1 [compound 58] | 74.4% | 
2 | CN1CCC(C(=O)N2CCc3nc(NC(=O)[C@@H]4CCN(C#N)C4)sc3C2)CC1 [compound 474] |  | inhibition at 1.25 µM [2]: 72.5%
3 | Cn1cc(-c2ccc(C(=O)N3CCc4nc(NC(=O)[C@@H]5CCN(C#N)C5)sc4C3)o2)cn1 [compound 220] | 27.6% | 
4 | CC(C)n1nccc1[C@@H]1OCC[C@H]1C(=O)N1CCc2nc(NC(=O)[C@@H]3CCN(C#N)C3)sc2C1 [compound 367] |  | inhibition at 1.25 µM [2]: 65%
5 | N#CN1CC[C@@H](C(=O)Nc2nc3c(s2)CN(C(=O)CNC(=O)c2ccccc2)CC3)C1 [compound 406] |  | inhibition at 1.25 µM [2]: 82.4%
6 | N#CN1CC[C@@H](C(=O)Nc2nc3c(s2)CN(C(=O)c2csc(-c4ccncc4)n2)CC3)C1 [compound 214] | 59.5% | 
7 | N#CN1CC[C@@H](C(=O)Nc2nc3c(s2)CN(C(=O)c2ccc(CNS(=O)(=O)c4ccc(F)c(F)c4F)cc2)CC3)C1 [compound 151] | 81.1% | 
8 | CC(C)(C)OC(=O)N1C[C@@H](O)C[C@@H]1C(=O)N1CCc2nc(NC(=O)[C@@H]3CCN(C#N)C3)sc2C1 [compound 450] |  | inhibition at 1.25 µM [2]: 68.1%
9 | Cc1cc(C(=O)N2CCc3nc(NC(=O)[C@@H]4CCN(C#N)C4)sc3C2)c(C)n1-c1ccon1 [compound 130] | 76.2% | 
10 | N#CN1CC[C@@H](C(=O)Nc2nc3c(s2)CN(C(=O)C2CC(=O)N(CCN4CCOCC4)C2)CC3)C1 (some centres unmarked) [compound 117] | 71.4% | 
11 | N#CN1CC[C@@H](C(=O)Nc2nc3c(s2)CN(C(=O)c2ccc(OCn4cc(Cl)cn4)cc2)CC3)C1 [compound 147] | 82.4% | 
12 | N#CN1CC[C@@H](C(=O)Nc2nc3c(s2)CN(C(=O)c2cccnc2-n2cccn2)CC3)C1 [compound 348] |  | inhibition at 1.25 µM [2]: 71.9%
13 | N#CN1CC[C@@H](C(=O)Nc2nc3c(s2)CN(C(=O)C2CC(=O)N(c4cnccn4)C2)CC3)C1 (some centres unmarked) [compound 24] | 71.4% | 
14 | Cc1cc(C(=O)N(C)c2ccccc2C(=O)N2CCc3nc(NC(=O)[C@@H]4CCN(C#N)C4)sc3C2)sc1C [compound 260] | 61.7% | 
15 | N#CN1CC[C@@H](C(=O)Nc2nc3c(s2)CN(C(=O)Cc2ccc(NS(=O)(=O)c4cccc(C(F)(F)F)c4)cc2)CC3)C1 [compound 385] |  | inhibition at 1.25 µM [2]: 81%
16 | N#CN1CC[C@@H](C(=O)Nc2nc3c(s2)CN(C(=O)C2CC4C=CC2O4)CC3)C1 (some centres unmarked) [compound 275] | 72% | 
17 | Cc1cc(COc2ccc(C(=O)N3CCc4nc(NC(=O)[C@@H]5CCN(C#N)C5)sc4C3)cc2Br)no1 [compound 173] | 72.5% | 
18 | Cn1cc(-c2cc[nH]n2)c(C(=O)N2CCc3nc(NC(=O)[C@@H]4CCN(C#N)C4)sc3C2)n1 [compound 187] | 59.2% | 
19 | N#CN1CC[C@@H](C(=O)Nc2nc3c(s2)CN(C(=O)c2ccc(Cn4cc(Cl)c(C(F)(F)F)n4)o2)CC3)C1 [compound 289] | 81.4% | 
20 | Cc1nn(-c2cccnc2)nc1C(=O)N1CCc2nc(NC(=O)[C@@H]3CCN(C#N)C3)sc2C1 [compound 230] | 62.8% | 
21 | N#CN1CC[C@@H](C(=O)Nc2nc3c(s2)CN(C(=O)c2ccnn2C2CCOCC2)CC3)C1 [compound 132] | 73.2% | 

Row | Structure (SMILES) | inhibition at 1.25 µM [1] | further results
22 | N#CN1CC[C@@H](C(=O)Nc2nc3c(s2)CN(C(=O)c2cnn(CCN4CCCC4)c2)CC3)C1 [compound 137] | 70.1% | 
23 | COc1ccc(CN2CCC2C(=O)N2CCc3nc(NC(=O)[C@@H]4CCN(C#N)C4)sc3C2)cc1 (some centres unmarked) [compound 228] | 62.2% | 
24 | CC1=NN(c2ccc(C(=O)N3CCc4nc(NC(=O)[C@@H]5CCN(C#N)C5)sc4C3)cc2)CC1 [compound 71] | 69.5% | 
25 | Cn1cc(-c2ocnc2C(=O)N2CCc3nc(NC(=O)[C@@H]4CCN(C#N)C4)sc3C2)cn1 [compound 18] | 60.9% | 
26 | CCOc1oc(-c2ccco2)nc1C(=O)N1CCc2nc(NC(=O)[C@@H]3CCN(C#N)C3)sc2C1 [compound 246] | 82.7% | 
27 | N#CN1CC[C@@H](C(=O)Nc2nc3c(s2)CN(C(=O)c2ncsc2Cc2ccccc2)CC3)C1 [compound 361] |  | inhibition at 1.25 µM [2]: 82.9%
28 | CCn1nc(C(C)C)cc1C(=O)N1CCCCC1C(=O)N1CCc2nc(NC(=O)[C@@H]3CCN(C#N)C3)sc2C1 (some centres unmarked) [compound 349] |  | inhibition at 1.25 µM [2]: 59.6%
29 | N#CN1CC[C@@H](C(=O)Nc2nc3c(s2)CN(C(=O)c2ncoc2C2CC2)CC3)C1 [compound 28] | 85.7% | 
30 | N#CN1CC[C@@H](C(=O)Nc2nc3c(s2)CN(C(=O)c2ccc(Oc4cccc(Cl)c4Cl)nn2)CC3)C1 [compound 60] | 69.8% | 
31 | COc1ccccc1-c1cc(C(=O)N2CCc3nc(NC(=O)[C@@H]4CCN(C#N)C4)sc3C2)n[nH]1 [compound 452] |  | inhibition at 1.25 µM [2]: 84.6%
32 | N#CN1CC[C@@H](C(=O)Nc2nc3c(s2)CN(C(=O)c2cnn(CC4CCC4)c2)CC3)C1 [compound 372] |  | inhibition at 1.25 µM [2]: 81.6%
33 | N#CN1CC[C@@H](C(=O)Nc2nc3c(s2)CN(C(=O)c2nc(N4CCOCC4)ncc2Cl)CC3)C1 [compound 376] |  | inhibition at 1.25 µM [2]: 70.8%
34 | N#CN1CC[C@@H](C(=O)Nc2nc3c(s2)CN(C(=O)Cn2cc(C=O)c4ccccc42)CC3)C1 [compound 423] |  | inhibition at 1.25 µM: 72.5%
35 | Cc1cc(-c2nc(C)sc2CC(=O)N2CCc3nc(NC(=O)[C@@H]4CCN(C#N)C4)sc3C2)c(C)s1 [compound 100] | 75.4% | 
36 | CN1C(=O)CCC(C(=O)N2CCc3nc(NC(=O)[C@@H]4CCN(C#N)C4)sc3C2)C1c1cccs1 (some centres unmarked) [compound 256] | 61.4% | 
37 | Cc1nc(CN2CCCC2C(=O)N2CCc3nc(NC(=O)[C@@H]4CCN(C#N)C4)sc3C2)no1 (some centres unmarked) [compound 43] | 71.1% | 
38 | N#CN1CC[C@@H](C(=O)Nc2nc3c(s2)CN(C(=O)c2cccc4c2-c2ccccc2C4)CC3)C1 [compound 425] |  | inhibition at 1.25 µM [2]: 84%
39 | CC(=O)Oc1ccccc1C(=O)N1CCc2nc(NC(=O)[C@@H]3CCN(C#N)C3)sc2C1 [compound 458] |  | inhibition at 1.25 µM [2]: 67.9%
40 | COc1ccc(C)cc1C(=O)N1CCc2nc(NC(=O)[C@@H]3CCN(C#N)C3)sc2C1 [compound 395] |  | inhibition at 1.25 µM [2]: 84.8%
41 | N#CN1CC[C@@H](C(=O)Nc2nc3c(s2)CN(C(=O)c2cnccn2)CC3)C1 [compound 468] |  | HTS FP assay %Inhibition (1.25 µM) [2]: 76.5%; % Inhibition (HTS of crude compound library, sheet "SMILES+%Inh HTS"): 76.5%

Continued, in another order:

Row | inhibition at 1.25 µM [1] | Structure (SMILES) | further results
42 | 67.7% | N#CN1CC[C@@H](C(=O)Nc2nc3c(s2)CN(C(=O)c2ccnc(C4CC4)n2)CC3)C1 [compound 264] | 
43 | 81.3% | N#CN1CC[C@@H](C(=O)Nc2nc3c(s2)CN(C(=O)c2occc2-c2ccccc2)CC3)C1 [compound 271] | 
44 | 75.5% | COc1ccc(CC(=O)N2CCc3nc(NC(=O)[C@@H]4CCN(C#N)C4)sc3C2)cc1S(=O)(=O)N1CCOCC1 [compound 257] | 
45 | 64.1% | N#CN1CC[C@@H](C(=O)Nc2nc3c(s2)CN(C(=O)[C@@H]2CCCO[C@H]2c2ccccc2)CC3)C1 [compound 287] | 
46 | 66.6% | N#CN1CC[C@@H](C(=O)Nc2nc3c(s2)CN(C(=O)C2(NS(=O)(=O)C=Cc4ccccc4)CCCC2)CC3)C1 [compound 251] | 
47 | 66.3% | N#CN1CC[C@@H](C(=O)Nc2nc3c(s2)CN(C(=O)c2ccccc2Cn2cncn2)CC3)C1 [compound 302] | 
48 | 74.3% | COc1ccccc1-c1nnc(CC(=O)N2CCc3nc(NC(=O)[C@@H]4CCN(C#N)C4)sc3C2)o1 [compound 78] | 
49 | 82.7% | N#CN1CC[C@@H](C(=O)Nc2nc3c(s2)CN(C(=O)Cc2csc(NS(=O)(=O)c4ccccc4)n2)CC3)C1 [compound 339] | 
50 | 75.9% | N#CN1CC[C@@H](C(=O)Nc2nc3c(s2)CN(C(=O)c2ccc(C#Cc4ccccc4)cc2)CC3)C1 [compound 319] | 
51 | 64.6% | Cc1ncsc1C(=O)N(C)c1ccccc1C(=O)N1CCc2nc(NC(=O)[C@@H]3CCN(C#N)C3)sc2C1 [compound 308] | 
52 | 67.7% | N#CN1CC[C@@H](C(=O)Nc2nc3c(s2)CN(C(=O)C(OC2CCOCC2)c2ccccc2)CC3)C1 (some centres unmarked) [compound 323] | 
53 | 64.4% | N#CN1CC[C@@H](C(=O)Nc2nc3c(s2)CN(C(=O)CCn2ccc(C(=O)N4CCCC4)n2)CC3)C1 [compound 324] | 
54 | 77.9% | Cc1cc(NS(=O)(=O)c2cccc(C(=O)N3CCc4nc(NC(=O)[C@@H]5CCN(C#N)C5)sc4C3)c2)no1 [compound 96] | 
55 | 87% | N#CN1CC[C@@H](C(=O)Nc2nc3c(s2)CN(C(=O)Cc2ccc(S(=O)(=O)N4CCOCC4)s2)CC3)C1 [compound 65] | 
56 | 83.8% | Cc1ccc(NS(=O)(=O)c2cccc(C(=O)N3CCc4nc(NC(=O)[C@@H]5CCN(C#N)C5)sc4C3)c2)cc1 [compound 31] | 
57 | 78.4% | N#CN1CC[C@@H](C(=O)Nc2nc3c(s2)CN(C(=O)c2ccc(S(=O)(=O)N4CCOCC4)cc2)CC3)C1 [compound 98] | 
58 | 69.7% | N#CN1CC[C@@H](C(=O)Nc2nc3c(s2)CN(C(=O)c2c[nH]nc2-c2ccncc2)CC3)C1 [compound 326] | 
59 | 83.7% | N#CN1CC[C@@H](C(=O)Nc2nc3c(s2)CN(C(=O)CC2(n4cccc4)CCCCC2)CC3)C1 [compound 145] | 
60 | 60.9% | N#CN1CC[C@@H](C(=O)Nc2nc3c(s2)CN(C(=O)c2c(-c4ccccc4)noc2C(F)F)CC3)C1 [compound 93] | 
61 | 87.2% | N#CN1CC[C@@H](C(=O)Nc2nc3c(s2)CN(C(=O)c2csc(C4CCCCC4)n2)CC3)C1 [compound 270] | 
